Reference: patent US12065424B1, “6′(4-methoxyphenyl)-2′-alkoxy-3,4′-bipyridine-3′-carbonitrile as antimicrobial compounds” (KING FAISAL UNIVERSITY, priority 2023, dated 2024)

Columns and labels:
Format in all cases: cell-based
[1] = tested on: Bacillus Cereus; assay: Agar plate disc-diffusion, antibacterial inhibition zone; conditions: nutrient agar, 37° C., 48 h, DMSO zone subtracted
Protocol: (§1) The agar plate disc-diffusion method was applied. Sterilized filter papers (6 mm in diameter) were wetted with 10 μL of a solution of 6′-(4-methoxyphenyl)-2′-ethoxy-3,4′-bipyridine-3′-carbonitrile (4) or 6′-(4-methoxyphenyl)-2′-methoxy-3,4′-bipyridine-3′-carbonitrile (5) to be tested, containing […] in DMSO, and the discs were allowed to air dry. The discs were then placed onto the surface of agar plates (nutrient agar for bacteria and Sabouraud's dextrose agar for fungi) seeded with the test organism. Each plate contained 15 mL of the agar medium, previously seeded with 0.2 mL of the broth culture of each organism pregrown for 18 hours. The plates were incubated at 37° C. for 48 h, and 72 h for fungi. The inhibition zones were measured in mm. Discs impregnated with DMSO were used as a control, and its inhibition zone was subtracted from the tested compound actual inhibition zone.
(§2) The results of the antimicrobial testing can be observed in Tables 1 and 2, below, using ciprofloxacin as a reference.

[2] = tested on: Escherichia coli; assay: as above; conditions: nutrient agar, 37° C., 48 h, DMSO zone subtracted
Protocol: as §1, §2

[3] = tested on: Pseudomonas aeruginosa; assay: as above; conditions: nutrient agar, 37° C., 48 h, DMSO zone subtracted
Protocol: as §1, §2

[4] = tested on: Staphylococcus aureus; assay: as above; conditions: nutrient agar, 37° C., 48 h, DMSO zone subtracted
Protocol: as §1, §2

[5] = tested on: Aspergillus flavus; assay: Agar plate disc-diffusion, antifungal inhibition zone; conditions: Sabouraud's dextrose agar, 37° C., 72 h, DMSO zone subtracted
Protocol: as §1, §2

[6] = tested on: Chrysosporium keratinophilum; assay: as above; conditions: Sabouraud's dextrose agar, 37° C., 72 h, DMSO zone subtracted
Protocol: as §1, §2

[7] = tested on: different microbes; assay: Antimicrobial activity, overall statement on Tables 1 and 2; conditions: summary of Tables 1 and 2, bacteria and fungi
Protocol: as §1
Their antibacterial activity was screened against gram positive bacteria namely Bacillus cereus and Staphylococcus aureus and gram-negative bacterial strains namely Pseudomonas aeruginosa and Escherichia coli, while their antifungal activity was screened against Aspergillus flavus and Chrysosporium keratinophilum.

[8] = A = concentration of comp. = 10,000 μL
[9] = B = concentration of comp. = 30.000 μL
[10] = C = concentration of comp. = 50,000 μL

Row | SMILES | inhibition zone [1, 8] [mm] | inhibition zone [1, 9] [mm] | inhibition zone [1, 10] [mm] | inhibition zone [2, 8] [mm] | inhibition zone [2, 9] [mm] | inhibition zone [2, 10] [mm] | inhibition zone [3, 8] [mm] | inhibition zone [3, 9] [mm] | inhibition zone [3, 10] [mm] | inhibition zone [4, 8] [mm] | inhibition zone [4, 9] [mm] | inhibition zone [4, 10] [mm] | inhibition zone [5, 8] [mm] | inhibition zone [5, 9] [mm] | inhibition zone [5, 10] [mm] | inhibition zone [6, 8] [mm] | inhibition zone [6, 9] [mm] | inhibition zone [6, 10] [mm] | antimicrobial activities (in words) [7]
1 | COc1ccc(-c2cc(-c3cccnc3)c(C#N)c(OC)n2)cc1 [Compound 5, 6′-(4-methoxyphenyl)-2′-methoxy-3,4′-bipyridine-3′-carbonitrile] | 23 | 25 | 37 | 27 | 37 | 50 | 23 | 31 | 39 | 19 | 27 | 32 | 24 | 26 | 39 | 27 | 28 | 49 | high antimicrobial activities
2 | O=C(O)c1cn(C2CC2)c2cc(N3CCNCC3)c(F)cc2c1=O [Cip., ciprofloxacin, reference compound] | 29 | 30 | 42 | 30 | 39 | 60 | 29 | 30 | 53 | 43 | 44 | 53 | 29 | 30 | 42 | 29 | 30 | 53 | 
3 | CCOc1nc(-c2ccc(OC)cc2)cc(-c2cccnc2)c1C#N [Compound 4, 6′-(4-methoxyphenyl)-2′-ethoxy-3,4′-bipyridine-3′-carbonitrile] | 19 | 25 | 32 | 26 | 36 | 49 | 25 | 28 | 41 | 17 | 21 | 31 | 23 | 27 | 38 | 25 | 28 | 46 | high antimicrobial activities
